Among the data in ChEMBL document CHEMBL5465560, “Selectivity Literature for EUbOPEN Chemogenomic Library” (2024) are % of control and % of inhibition values, retold here.

The target in test [1] is Cyclin-dependent kinase 4/cyclin D1 (Homo sapiens) (UniProt P11802+P24385). Briefly: (§1) Selectivity interaction (ProQinase) EUB0000171b CDK4. It counts as protein-complex assay.
Test [2] addresses CDK4/Cyclin D3 (Homo sapiens) (UniProt P11802+P30281). The test is described as §1. It is filed as protein-complex assay.
In test [3] the target is Serine/threonine-protein kinase N2 (Homo sapiens, UniProt Q16513). The settings on record: at 10 µM.
Test [4] relates to Mast/stem cell growth factor receptor Kit (Homo sapiens), P10721 [D816V]. The settings on record: at 10 µM.
The target of test [5] is T1, Myosin-IIIb (Homo sapiens) (UniProt Q8WXR4).
T1 sequence (whole entry): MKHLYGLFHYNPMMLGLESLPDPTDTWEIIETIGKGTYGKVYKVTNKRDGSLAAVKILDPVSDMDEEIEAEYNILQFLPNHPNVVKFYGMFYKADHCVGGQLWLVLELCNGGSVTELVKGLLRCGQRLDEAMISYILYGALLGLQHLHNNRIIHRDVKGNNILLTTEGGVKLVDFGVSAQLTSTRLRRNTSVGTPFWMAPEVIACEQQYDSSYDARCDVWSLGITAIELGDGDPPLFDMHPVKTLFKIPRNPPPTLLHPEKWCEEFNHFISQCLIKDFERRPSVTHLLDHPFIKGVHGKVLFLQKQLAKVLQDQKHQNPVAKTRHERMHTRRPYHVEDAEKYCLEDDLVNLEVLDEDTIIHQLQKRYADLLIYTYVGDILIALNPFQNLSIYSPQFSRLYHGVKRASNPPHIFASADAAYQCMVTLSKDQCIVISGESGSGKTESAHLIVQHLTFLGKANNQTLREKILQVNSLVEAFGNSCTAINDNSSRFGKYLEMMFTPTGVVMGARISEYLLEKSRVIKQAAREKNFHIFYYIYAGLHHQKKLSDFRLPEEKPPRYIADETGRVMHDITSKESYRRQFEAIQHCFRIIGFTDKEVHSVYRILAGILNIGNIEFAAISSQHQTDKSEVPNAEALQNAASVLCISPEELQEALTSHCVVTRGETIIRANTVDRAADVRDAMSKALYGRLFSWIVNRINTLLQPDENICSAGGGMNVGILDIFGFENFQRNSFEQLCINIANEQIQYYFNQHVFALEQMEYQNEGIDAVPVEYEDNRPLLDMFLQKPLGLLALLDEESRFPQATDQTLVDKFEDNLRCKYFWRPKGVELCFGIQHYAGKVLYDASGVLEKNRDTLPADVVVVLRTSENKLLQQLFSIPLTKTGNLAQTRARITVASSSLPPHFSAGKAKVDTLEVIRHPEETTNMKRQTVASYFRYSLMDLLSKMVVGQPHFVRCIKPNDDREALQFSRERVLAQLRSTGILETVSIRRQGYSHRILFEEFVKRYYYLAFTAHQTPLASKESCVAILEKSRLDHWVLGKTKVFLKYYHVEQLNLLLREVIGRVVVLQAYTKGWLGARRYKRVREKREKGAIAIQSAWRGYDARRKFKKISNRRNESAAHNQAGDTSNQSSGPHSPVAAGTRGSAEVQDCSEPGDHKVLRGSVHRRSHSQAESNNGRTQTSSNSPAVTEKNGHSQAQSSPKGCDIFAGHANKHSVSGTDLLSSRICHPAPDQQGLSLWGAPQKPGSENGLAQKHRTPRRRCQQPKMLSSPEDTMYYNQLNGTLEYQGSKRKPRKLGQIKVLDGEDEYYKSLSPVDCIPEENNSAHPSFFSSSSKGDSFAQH
Briefly: Selectivity interaction (KinomeScan (DiscoverX)) EUB0001079a MYO3B. Conditions: at 1 µM.

Test [6] deals with T2, Dual specificity mitogen-activated protein kinase kinase 6 (Homo sapiens) (UniProt P52564).
T2 sequence (whole entry): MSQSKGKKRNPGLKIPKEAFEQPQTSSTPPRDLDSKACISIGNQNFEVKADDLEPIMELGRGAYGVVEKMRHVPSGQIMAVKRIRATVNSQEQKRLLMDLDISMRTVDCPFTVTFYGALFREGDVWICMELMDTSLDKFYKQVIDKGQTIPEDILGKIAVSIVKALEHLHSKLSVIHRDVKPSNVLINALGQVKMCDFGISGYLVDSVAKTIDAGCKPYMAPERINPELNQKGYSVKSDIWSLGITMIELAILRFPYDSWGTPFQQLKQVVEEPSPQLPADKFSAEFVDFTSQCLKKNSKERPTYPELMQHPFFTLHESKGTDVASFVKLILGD
Briefly: Selectivity interaction (KinomeScan (DiscoverX)) EUB0000092b MAP2K6. The settings on record: at 10 µM.

Test [7] deals with T3, Receptor-interacting serine/threonine-protein kinase 1 (Homo sapiens) (UniProt Q13546).
T3 sequence (whole entry): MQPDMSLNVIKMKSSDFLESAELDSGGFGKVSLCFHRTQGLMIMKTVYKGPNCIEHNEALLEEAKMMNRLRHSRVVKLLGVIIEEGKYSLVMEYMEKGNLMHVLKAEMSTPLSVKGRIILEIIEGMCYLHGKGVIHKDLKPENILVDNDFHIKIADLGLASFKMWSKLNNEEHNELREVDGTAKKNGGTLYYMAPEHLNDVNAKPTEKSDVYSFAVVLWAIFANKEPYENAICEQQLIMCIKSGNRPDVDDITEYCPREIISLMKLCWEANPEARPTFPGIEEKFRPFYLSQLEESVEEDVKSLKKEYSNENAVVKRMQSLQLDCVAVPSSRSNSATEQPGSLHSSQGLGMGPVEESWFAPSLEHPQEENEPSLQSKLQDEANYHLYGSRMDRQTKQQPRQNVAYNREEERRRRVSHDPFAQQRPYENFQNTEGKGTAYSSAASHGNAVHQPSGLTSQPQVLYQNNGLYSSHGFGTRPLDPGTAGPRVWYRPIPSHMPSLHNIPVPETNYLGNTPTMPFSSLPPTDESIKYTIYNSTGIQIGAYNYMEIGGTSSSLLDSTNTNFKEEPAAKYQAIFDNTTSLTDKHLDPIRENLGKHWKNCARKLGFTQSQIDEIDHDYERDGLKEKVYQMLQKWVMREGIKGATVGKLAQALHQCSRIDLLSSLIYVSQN
Briefly: Selectivity interaction (KinomeScan (DiscoverX)) EUB0000092b RIPK1. The settings on record: at 10 µM.

Test [8] has as its target Serine/threonine-protein kinase Nek6 (Homo sapiens) (UniProt Q9HC98). Briefly: Selectivity interaction (KinomeScan (DiscoverX)) EUB0001049a NEK6. The settings on record: at 1 µM.
The target of test [9] is Mitogen-activated protein kinase kinase kinase kinase 1 (Homo sapiens) (UniProt Q92918). In words: Selectivity interaction (KinomeScan (DiscoverX)) EUB0000607a MAP4K1. The settings on record: at 10 µM.
The target of test [10] is Interferon-induced, double-stranded RNA-activated protein kinase (Homo sapiens) (UniProt P19525). In words: Selectivity interaction (ActivX KiNativ screen (kinase selectivity in THP-1 cell lysates)) EUB0000639a EIF2AK2. It is filed as subcellular. The settings on record: lysate, at 1 µM.
The target in test [11] is Mitogen-activated protein kinase kinase kinase 11 (Homo sapiens) (UniProt Q16584). Briefly: Selectivity interaction (Kinase panel (literature)) EUB0001199aCl MAP3K11. The settings on record: at 1 µM.
Chain of Mitogen-activated protein kinase kinase kinase 11 (Homo sapiens) (Q16584 whole entry, looked up): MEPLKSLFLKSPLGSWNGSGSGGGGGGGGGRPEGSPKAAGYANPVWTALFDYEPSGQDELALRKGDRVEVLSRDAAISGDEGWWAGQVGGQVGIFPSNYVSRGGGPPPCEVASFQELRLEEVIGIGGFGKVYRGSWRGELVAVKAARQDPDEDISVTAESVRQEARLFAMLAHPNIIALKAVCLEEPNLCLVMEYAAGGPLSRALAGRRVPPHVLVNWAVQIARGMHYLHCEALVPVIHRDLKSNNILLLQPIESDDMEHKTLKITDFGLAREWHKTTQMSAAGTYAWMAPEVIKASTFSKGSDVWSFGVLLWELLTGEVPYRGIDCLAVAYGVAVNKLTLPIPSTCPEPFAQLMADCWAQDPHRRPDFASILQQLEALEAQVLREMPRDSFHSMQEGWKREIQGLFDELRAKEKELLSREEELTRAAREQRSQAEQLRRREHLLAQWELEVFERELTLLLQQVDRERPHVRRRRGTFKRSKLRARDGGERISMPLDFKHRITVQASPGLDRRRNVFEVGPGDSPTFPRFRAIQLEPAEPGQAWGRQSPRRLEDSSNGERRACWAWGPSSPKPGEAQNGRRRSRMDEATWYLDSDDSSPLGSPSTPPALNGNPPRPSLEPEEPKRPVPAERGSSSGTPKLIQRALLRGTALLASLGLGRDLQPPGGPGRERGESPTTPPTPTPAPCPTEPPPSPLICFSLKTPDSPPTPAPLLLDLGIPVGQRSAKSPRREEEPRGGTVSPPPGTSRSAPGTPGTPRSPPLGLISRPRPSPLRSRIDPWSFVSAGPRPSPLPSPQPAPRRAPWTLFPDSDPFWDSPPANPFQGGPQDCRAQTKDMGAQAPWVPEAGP

Chain of Serine/threonine-protein kinase Nek6 (Homo sapiens) (Q9HC98 whole entry): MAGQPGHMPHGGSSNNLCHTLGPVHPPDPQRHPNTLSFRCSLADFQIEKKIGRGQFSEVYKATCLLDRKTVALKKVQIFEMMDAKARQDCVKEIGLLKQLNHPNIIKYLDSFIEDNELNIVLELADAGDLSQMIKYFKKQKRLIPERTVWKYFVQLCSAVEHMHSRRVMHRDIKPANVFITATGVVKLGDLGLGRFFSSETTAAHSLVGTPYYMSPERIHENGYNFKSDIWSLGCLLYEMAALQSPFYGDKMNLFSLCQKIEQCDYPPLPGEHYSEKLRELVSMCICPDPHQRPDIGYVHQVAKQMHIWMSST
Chain of Interferon-induced, double-stranded RNA-activated protein kinase (Homo sapiens) (P19525 whole entry): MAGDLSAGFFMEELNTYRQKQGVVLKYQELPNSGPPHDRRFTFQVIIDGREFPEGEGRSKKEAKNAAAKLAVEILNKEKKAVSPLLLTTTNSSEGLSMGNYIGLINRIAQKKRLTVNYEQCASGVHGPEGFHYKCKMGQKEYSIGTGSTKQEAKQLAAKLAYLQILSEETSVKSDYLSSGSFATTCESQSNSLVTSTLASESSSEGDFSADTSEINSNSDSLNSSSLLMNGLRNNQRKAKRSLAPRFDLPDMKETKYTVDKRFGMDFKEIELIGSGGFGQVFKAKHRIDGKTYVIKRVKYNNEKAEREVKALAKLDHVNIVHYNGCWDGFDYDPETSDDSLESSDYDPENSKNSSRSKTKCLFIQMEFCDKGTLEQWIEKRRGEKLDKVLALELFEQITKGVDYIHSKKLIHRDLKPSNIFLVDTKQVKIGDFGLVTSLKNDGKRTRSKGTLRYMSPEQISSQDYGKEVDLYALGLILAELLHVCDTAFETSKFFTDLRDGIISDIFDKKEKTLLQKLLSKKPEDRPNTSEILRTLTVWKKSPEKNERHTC
Chain of Serine/threonine-protein kinase N2 (Q16513 whole entry, looked up): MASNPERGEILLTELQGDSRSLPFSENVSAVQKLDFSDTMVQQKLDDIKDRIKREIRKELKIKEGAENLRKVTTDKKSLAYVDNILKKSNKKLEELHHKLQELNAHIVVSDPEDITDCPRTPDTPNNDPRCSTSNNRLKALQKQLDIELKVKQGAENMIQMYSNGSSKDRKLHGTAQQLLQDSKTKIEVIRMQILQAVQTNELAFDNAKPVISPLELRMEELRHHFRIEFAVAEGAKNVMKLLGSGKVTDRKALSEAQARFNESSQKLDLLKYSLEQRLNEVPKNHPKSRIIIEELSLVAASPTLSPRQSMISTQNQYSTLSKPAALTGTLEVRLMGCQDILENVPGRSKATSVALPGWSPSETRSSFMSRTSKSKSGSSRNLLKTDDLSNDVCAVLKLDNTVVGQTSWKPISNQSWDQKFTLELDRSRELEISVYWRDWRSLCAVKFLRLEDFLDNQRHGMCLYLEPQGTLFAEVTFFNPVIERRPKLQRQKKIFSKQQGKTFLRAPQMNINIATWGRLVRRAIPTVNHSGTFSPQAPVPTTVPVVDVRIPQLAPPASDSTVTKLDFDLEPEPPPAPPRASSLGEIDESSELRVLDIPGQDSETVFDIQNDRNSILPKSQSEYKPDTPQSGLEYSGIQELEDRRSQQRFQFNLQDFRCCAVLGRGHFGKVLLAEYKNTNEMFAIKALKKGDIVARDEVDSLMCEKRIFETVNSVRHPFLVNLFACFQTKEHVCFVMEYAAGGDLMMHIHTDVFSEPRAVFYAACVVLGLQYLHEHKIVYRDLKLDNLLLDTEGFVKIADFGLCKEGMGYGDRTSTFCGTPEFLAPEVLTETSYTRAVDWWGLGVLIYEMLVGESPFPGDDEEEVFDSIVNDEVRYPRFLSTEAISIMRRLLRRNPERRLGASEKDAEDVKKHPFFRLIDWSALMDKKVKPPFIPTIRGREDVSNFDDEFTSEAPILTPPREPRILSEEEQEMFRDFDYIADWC
Chain of Mast/stem cell growth factor receptor Kit (Homo sapiens), P10721 [D816V] (P10721 whole entry D816V): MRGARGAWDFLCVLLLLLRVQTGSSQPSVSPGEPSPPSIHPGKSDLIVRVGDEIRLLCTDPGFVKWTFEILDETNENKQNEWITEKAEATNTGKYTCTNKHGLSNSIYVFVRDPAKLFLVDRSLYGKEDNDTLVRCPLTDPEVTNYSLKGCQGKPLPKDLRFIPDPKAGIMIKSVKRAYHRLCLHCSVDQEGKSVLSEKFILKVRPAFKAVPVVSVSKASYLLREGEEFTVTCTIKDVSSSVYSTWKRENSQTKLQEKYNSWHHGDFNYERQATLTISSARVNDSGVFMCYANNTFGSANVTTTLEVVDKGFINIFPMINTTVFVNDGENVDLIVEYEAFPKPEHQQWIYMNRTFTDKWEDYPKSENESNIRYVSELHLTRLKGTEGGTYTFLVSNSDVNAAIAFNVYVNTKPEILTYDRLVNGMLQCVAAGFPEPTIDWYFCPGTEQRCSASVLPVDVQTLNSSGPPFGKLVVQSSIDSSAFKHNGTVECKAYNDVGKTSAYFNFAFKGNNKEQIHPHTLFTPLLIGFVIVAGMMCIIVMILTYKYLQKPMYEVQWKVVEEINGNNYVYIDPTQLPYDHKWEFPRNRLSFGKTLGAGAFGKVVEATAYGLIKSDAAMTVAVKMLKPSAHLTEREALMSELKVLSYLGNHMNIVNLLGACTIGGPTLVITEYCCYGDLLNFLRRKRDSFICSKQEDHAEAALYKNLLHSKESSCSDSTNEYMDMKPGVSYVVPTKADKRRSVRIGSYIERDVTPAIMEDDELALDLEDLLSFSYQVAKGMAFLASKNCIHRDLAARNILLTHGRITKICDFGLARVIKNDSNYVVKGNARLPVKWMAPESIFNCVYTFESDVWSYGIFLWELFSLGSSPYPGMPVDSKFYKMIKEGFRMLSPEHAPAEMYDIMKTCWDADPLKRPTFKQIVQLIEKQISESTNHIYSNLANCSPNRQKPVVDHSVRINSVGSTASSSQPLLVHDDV
Chain of Mitogen-activated protein kinase kinase kinase kinase 1 (Homo sapiens) (Q92918 whole entry, looked up): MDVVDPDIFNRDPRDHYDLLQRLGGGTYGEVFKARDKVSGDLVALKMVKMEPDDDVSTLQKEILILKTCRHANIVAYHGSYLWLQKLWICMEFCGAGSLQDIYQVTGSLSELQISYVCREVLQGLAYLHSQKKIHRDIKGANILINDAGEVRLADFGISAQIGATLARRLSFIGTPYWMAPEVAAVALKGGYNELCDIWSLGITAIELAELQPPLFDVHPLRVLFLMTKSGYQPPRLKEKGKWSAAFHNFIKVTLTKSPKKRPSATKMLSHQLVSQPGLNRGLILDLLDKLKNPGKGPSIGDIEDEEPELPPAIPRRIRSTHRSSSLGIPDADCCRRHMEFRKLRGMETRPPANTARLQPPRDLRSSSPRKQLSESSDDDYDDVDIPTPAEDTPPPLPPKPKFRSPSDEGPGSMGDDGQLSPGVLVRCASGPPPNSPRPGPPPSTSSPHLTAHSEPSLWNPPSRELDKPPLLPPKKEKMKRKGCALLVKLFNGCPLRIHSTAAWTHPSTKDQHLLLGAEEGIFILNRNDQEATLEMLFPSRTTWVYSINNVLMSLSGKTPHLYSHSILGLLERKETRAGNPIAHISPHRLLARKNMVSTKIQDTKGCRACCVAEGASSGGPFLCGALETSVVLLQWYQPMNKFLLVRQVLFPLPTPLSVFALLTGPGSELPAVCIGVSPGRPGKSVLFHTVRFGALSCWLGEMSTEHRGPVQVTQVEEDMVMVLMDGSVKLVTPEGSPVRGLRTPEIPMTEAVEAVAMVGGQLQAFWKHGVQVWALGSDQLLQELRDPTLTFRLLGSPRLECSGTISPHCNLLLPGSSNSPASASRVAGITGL

Turning to `C=CC(=O)Nc1cccc(C(=O)Nc2ccc(Nc3cc(-c4[nH]c(SC)nc4C)ccn3)cc2)c1`, the % of control is 94% in test [1] (at 1 µM), 76% in [1] (at 5 µM), 92% in test [2] (at 1 µM) and 83% in [2] (at 5 µM).

Take `Cc1cc([C@@H](C)Nc2ccccc2C(=O)O)c2nc(N3CCOCC3)cc(=O)n2c1` [AZD-6482]: the % of control was found to be 98% in [3] and 81% in [4].

For `Nc1cnc(N2CCc3cc(S(=O)(=O)Nc4c(F)cc(Cl)cc4F)cc(N4CCCC4=O)c32)nc1` [TP-020n], the % of control in [5] worked out at 100%.

As to `CCC(=O)N1CCN(c2ccc(-n3c(=O)ccc4cnc5ccc(-c6cnc7ccccc7c6)cc5c43)cc2C(F)(F)F)CC1`, the % of control in [6] was 100%; in [7], 1.9%.

Molecule `COc1cc(Nc2nc(C)cc(-c3cnn4nc(OC)ccc34)n2)cc(C(F)(F)F)c1` registered a % of control in [8] of 89%.

`CNC(=O)Nc1ccc(-c2nc(N3CC4CCC(C3)O4)c3cnn(C4CCC5(CC4)OCCO5)c3n2)cc1` yielded a % of control in test [9] of 94%.

As to `CC[C@@H]1[C@H](F)C(=O)N[C@@H]1COc1nccc2cc(C(N)=O)c(OC)cc12` [ZIMLOVISERTIB], in test [10], the % of inhibition is -3.7%.

Take `CN1Cc2nccc(-c3cn(C)nc3-c3ccc(F)cc3)c2C1=O`: in [11], the % of inhibition was found to be 3%.
